Reference: patent publication US4598070A, “Tripamide and cyclodextrin inclusion compound” (Eisai Co., Ltd., priority 1983, dated 1986)
In brackets after ≈: the same amount, converted by molar mass. Like-named read-outs stand apart in the source and are kept apart here.

Assay: Solubility of tripamide in water, Liquid I or Liquid II of the Japanese Pharmacopeia (37° C., 5 days, absorbancy method)
Format: physicochemical
Conditions: for solubility at 120 h: 37° C., 5 days, as tripamide, Experiment 2
Procedure: The inclusion compound prepared in accordance with the process described in Example 1 was used as a sample. This sample was prepared by the reaction of 1 mole of tripamide and 3 moles of β-cyclodextrin. For purpose of comparison, tripamide per se was used.
The sample was accurately weighed 100 mg as tripamide and mixed with water, Liquid I of the Japanese Pharmacopeia or Liquid II of the Japanese Pharmacopeia. The mixture was stirred at 37° C. in a warm bath for 5 days. Tripamide, dissolved in the solution, was measured by the absorbancy method.
That is, each of the tripamide solutions in water, Liquid I of the Japanese Pharmacopeia and Liquid II of the Japanese Pharmacopeia was filtered using a millipore filter of 1.2 μm and 1 ml each of the solutions after filtration was taken out. In the case of the solution using Liquid I of the Japanese Pharmacopeia, the solution was further diluted with Liquid I of the Japanese Pharmacopeia to make a 100 ml solution and 5 ml taken out of the resulting solution was further diluted to 50 ml with a 0.1N hydrochloric acid-methanol solution followed by measurement at 244 nm. In the case of each of the solutions in water and Liquid II of the Japanese Pharmacopeia, the solution was diluted to 100 ml with Liquid II of the Japanese Pharmacopeia followed by measurement at 233 nm. […]

solubility at 120 h (Water, read-out: Solubility (mg/ml), Water): 0.0094 mg/mL (≈ 25.4 µM)
solubility at 120 h (jp liquid i, pH 1.2, Liquid I of the Japanese Pharmacopeia, pH about 1.2, read-out: Solubility (mg/ml), Japanese Pharmacopeia Liquid I): 0.349 mg/mL (≈ 944 µM)
solubility at 120 h (jp liquid ii, pH 7.5, Liquid II of the Japanese Pharmacopeia, pH about 7.5, read-out: Solubility (mg/ml), Japanese Pharmacopeia Liquid II): 0.0144 mg/mL (≈ 38.9 µM)
solubility in water, Liquid I and Liquid II (in words) (water, Liquid I and Liquid II of the Japanese Pharmacopoeia, sample for comparison): low
SMILES: NS(=O)(=O)c1cc(C(=O)NN2C[C@@H]3[C@@H]4CC[C@@H](C4)[C@@H]3C2)ccc1Cl [Tripamide, N-(4-A2a-endo-tricyclo[5.2.1.0^2.6. ]decan-4-yl)-4-chloro-3-sulfamoylbenzamide]
solubility in water (in words) (water, background statement): soluble in water only with extreme difficulty
